In the supplement of paper PMC4862054:

Key:
MDA-MB-436 [1] = assay: normalised viability (% of control), CellTiter-Blue; higher = more viable cells (about 100 = DMSO control); settings: incubation time: 72 h
Summary of the method: (§1)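 Each value is normalised viability at a single listed concentration of the series. Breast cancer cell lines in 384-well plates were incubated 72 h with compound and read by CellTiter-Blue fluorescence at 560/590 nm, with vehicle set to 100 and a positive kill control to 0 on every plate.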

HCC1599 [2] = assay: as above; settings: incubation time: 72 h
Summary of the method: as §1

MDA-MB-231 [3] = assay: as above; settings: incubation time: 72 h
Summary of the method: as §1

HCC1937 [4] = assay: as above; settings: incubation time: 72 h
Summary of the method: as §1

CAL-148 [5] = assay: as above; settings: incubation time: 72 h
Summary of the method: as §1

CAL-85-1 [6] = settings: 72 h
Method: (§2)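 Drug sensitivity and resistance testing (DSRT) of breast cancer cell lines in 384-well plates, 5 concentrations in 10-fold dilutions over a compound-specific 10,000-fold range. After 72 h, cytotoxicity was read by CellTox Green fluorescence and viability by CellTiter-Glo luminescence (multiplexed), normalised to DMSO and benzethonium chloride controls. EC50 is the inflection point of the fitted dose-response curve (bottom asymptote free, so it can be relative for partial curves) and is censored at the highest tested concentration. Rows with DSS 0 (no meaningful response) were excluded.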

CAL-51 [7] = settings: 72 h
Summary of the method: (§3)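 Breast cancer cell lines (20 µl suspension) were seeded into 384-well plates holding compound at 5 concentrations in 10-fold steps over a compound-specific 10,000-fold range, then incubated 72 h. Cell death was read first by CellTox Green fluorescence (485/520 nm), then viability by CellTiter-Glo luminescence after 10 min at room temperature. Each plate was normalised to 0.1 % DMSO and a positive kill control. EC50 was fitted from the dose-response curves and censored at the top concentration.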

MFM-223 [8] = settings: 72 h
Method: as §2

CAL-51 [9] = settings: 72 h; remark: listed apart in the source
Method: as §2

BT-549 [10] = settings: 72 h
Method: as §2

BT-474 [11] = settings: 72 h
Method: as §2

HCC1599 [12] = settings: 72 h
Method: as §2

MDA-MB-231 [13] = settings: 72 h
Method: as §2

HCC1143 [14] = settings: 72 h
Method: as §2

CAL-120 = settings: 72 h
Method: as §2

Hs578T [15] = settings: 72 h
Method: as §2

MDA-MB-468 [16] = settings: 72 h
Method: as §2

MCF-10A [17] = settings: 72 h
Method: as §2

MFM-223 [18] = settings: 72 h; remark: listed apart in the source
Summary of the method: as §3

BT-549 [19] = settings: 72 h; remark: listed apart in the source
Summary of the method: as §3

MDA-MB-436 [20] = settings: 72 h
Summary of the method: as §3

MDA-MB-453 [21] = settings: 72 h
Summary of the method: as §3

BT-474 [22] = settings: 72 h; remark: listed apart in the source
Summary of the method: as §3

DU-4475 [23] = settings: 72 h
Summary of the method: as §3

HCC1599 [24] = settings: 72 h; remark: listed apart in the source
Summary of the method: as §3

MDA-MB-231 [25] = settings: 72 h; remark: listed apart in the source
Summary of the method: as §3

HCC1143 [26] = settings: 72 h; remark: listed apart in the source
Summary of the method: as §3

SK-BR-3 = settings: 72 h
Summary of the method: as §3

CAL-85-1 [27] = settings: 72 h; remark: listed apart in the source
Summary of the method: as §3

HCC1937 [28] = settings: 72 h
Summary of the method: as §3

CAL-148 [29] = settings: 72 h
Summary of the method: as §3

Hs578T [30] = settings: 72 h; remark: listed apart in the source
Summary of the method: as §3

MCF-10A [31] = settings: 72 h; remark: listed apart in the source
Summary of the method: as §3

HDQ-P1 [32] = settings: 72 h
Summary of the method: as §3

MFM-223 [33] = settings: 72 h; remark: listed apart in the source
Summary of the method: (§4)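 Viability of breast cancer cell lines was measured with CellTiter-Blue after 72 h of incubation on compound-loaded 384-well plates. Cells were seeded in 20 µl onto compound dissolved in 5 µl medium, and 2.5 µl reagent was added for 2 h at 37 °C before reading at 560/590 nm. EC50 was fitted from percent-inhibition dose-response data censored at the highest concentration, normalised per plate to vehicle and a positive kill control, with zero drug sensitivity score rows dropped.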

BT-474 [34] = settings: 72 h; remark: listed apart in the source
Summary of the method: as §4

HCC1599 [35] = settings: 72 h; remark: listed apart in the source
Summary of the method: as §4

MDA-MB-231 [36] = settings: 72 h; remark: listed apart in the source
Summary of the method: as §4

HCC1143 [37] = settings: 72 h; remark: listed apart in the source
Summary of the method: as §4

Hs578T [38] = settings: 72 h; remark: listed apart in the source
Summary of the method: as §4

MDA-MB-468 [39] = settings: 72 h; remark: listed apart in the source
Summary of the method: as §4

MDA-MB-453 [40] = settings: 72 h; remark: listed apart in the source
Summary of the method: as §4

DU-4475 [41] = settings: 72 h; remark: listed apart in the source
Summary of the method: as §4

CAL-85-1 [42] = settings: 72 h; remark: listed apart in the source
Summary of the method: as §4

HDQ-P1 [43] = settings: 72 h; remark: listed apart in the source
Summary of the method: as §4

C[C@]1(c2nc3c(C(N)=O)cccc3[nH]2)CCCN1 [Veliparib]
normalised viability [%]
Settings	3 nM	10 nM	30 nM	100 nM	1000 nM	10000 nM
CAL-148 [5]	89.3	–	86.4	85.6	–	–
HCC1599 [2]	–	100	–	–	98.3	100
HCC1937 [4]	–	72.2	–	–	70	61.7
MDA-MB-231 [3]	–	80.8	–	–	90.3	94.8
MDA-MB-436 [1]	–	83.3	–	–	89.1	84.6

Settings	EC50, CellTiter-Glo [nM]	EC50, CellTox Green [nM]
CAL-51 [7]	50	–
CAL-85-1 [6]	–	> 10000

CC[C@]1(O)C[C@@H]2CN(CCc3c([nH]c4ccccc34)[C@@](C(=O)OC)(c3cc4c(cc3OC)N(C)[C@H]3[C@@](O)(C(=O)OC)[C@H](OC(C)=O)[C@]5(CC)C=CCN6CC[C@]43[C@@H]65)C2)C1 [Vinblastine]
normalised viability [%]
Settings	0.3 nM	1 nM	3 nM	10 nM	100 nM	1000 nM
CAL-148 [5]	76.8	–	78.8	79	–	–
HCC1599 [2]	–	106	–	–	56.9	45.5
HCC1937 [4]	–	46	–	–	18.7	15.6
MDA-MB-231 [3]	–	70	–	–	13.4	12
MDA-MB-436 [1]	–	93	–	–	28.8	37

Settings	EC50, CellTiter-Blue viability [nM]	EC50, CellTiter-Glo [nM]	EC50, CellTox Green [nM]
BT-474 [11]	–	–	2.92
BT-474 [22]	–	5.38	–
BT-474 [34]	0.15	–	–
BT-549 [10]	–	–	4.29
BT-549 [19]	–	2.25	–
CAL-51 [7]	–	8.68	–
CAL-51 [9]	–	–	3.78
CAL-85-1 [6]	–	–	9.62
CAL-85-1 [27]	–	2.04	–
CAL-85-1 [42]	6.34	–	–
CAL-120	–	–	> 1000
CAL-148 [29]	–	8.95	–
DU-4475 [23]	–	75.5	–
DU-4475 [41]	52.4	–	–
HCC1143 [14]	–	–	61.8
HCC1143 [26]	–	2.51	–
HCC1143 [37]	1.61	–	–
HCC1599 [12]	–	–	7.49
HCC1599 [24]	–	19.7	–
HCC1599 [35]	61.1	–	–
HCC1937 [28]	–	2.55	–
HDQ-P1 [32]	–	5.35	–
HDQ-P1 [43]	5.43	–	–
Hs578T [15]	–	–	15.2
Hs578T [30]	–	9.25	–
Hs578T [38]	1.3	–	–
MCF-10A [17]	–	–	11.4
MCF-10A [31]	–	2.59	–
MDA-MB-231 [13]	–	–	15.8
MDA-MB-231 [25]	–	5.07	–
MDA-MB-231 [36]	1.61	–	–
MDA-MB-436 [20]	–	3.49	–
MDA-MB-453 [21]	–	2.44	–
MDA-MB-453 [40]	6.17	–	–
MDA-MB-468 [16]	–	–	2.48
MDA-MB-468 [39]	1.5	–	–
MFM-223 [8]	–	–	7.9
MFM-223 [18]	–	12.4	–
MFM-223 [33]	36	–	–
SK-BR-3	–	2.44	–

CS(=O)(=O)c1ccc(C(=O)Nc2ccc(Cl)c(-c3ccccn3)c2)c(Cl)c1 [Vismodegib]
normalised viability [%]
Settings	3 nM	10 nM	30 nM	100 nM	1000 nM	10000 nM
CAL-148 [5]	79.8	–	93.5	92.2	–	–
HCC1599 [2]	–	112	–	–	97.7	84.1
HCC1937 [4]	–	57.2	–	–	91.4	83.9
MDA-MB-231 [3]	–	115	–	–	97.7	92
MDA-MB-436 [1]	–	90.9	–	–	23.6	76

Settings	EC50, CellTox Green [nM]
Hs578T [15]	> 10000
